From article PMC2363502
“Also recorded” adds a separate entry of the source. Like-named read-outs stand apart in the source and are kept apart here.

What was measured:
[1] = set-up: method as in data on file; conditions: rats and dogs; ref data on file; cited from earlier work
[2] = system: human HCT-116 tumour cell line; set-up: method as in data on file; conditions: subcutaneous HCT-116 in nude mice; ref data on file; cited from earlier work
[3] = system: variety of different tumour cell lines; set-up: method as in H Mett, unpublished data; conditions: including multi-drug-resistant and highly metastatic variants; ref H Mett, unpublished data; cited from earlier work
[4] = short-term single or repeat bolus injections of high doses; preclinical background, ref not given; cited from earlier work
solid tumours = assay: phase I clinical efficacy (UICC tumour response, markers, FDG-PET); format: in vivo, human
Protocol: (§1) Preclinical testing confirmed promising antiproliferative activity. […] Physical examination was performed weekly. […] N-Acetyl-SPERMINE SSAT SSAT […] Analysis was descriptive only. […] Patient characteristics are described in Table 1. […] Three patients completed the full six cycles of treatment. Of these, two received the combination 5FU/SAM486A from cycle 3 onwards. Five patients recorded a best response of stable disease. Of these, three received the combination 5FU/SAM486A from cycle 3 onwards (see below).

tumour = system: tumour; set-up: method as in Gschaidmeier et al, 1999, O'Reilly et al, 2000; conditions: in vitro and in vivo; ref Gschaidmeier et al, 1999, O'Reilly et al, 2000; cited from earlier work
[5] = phase I pharmacokinetics in plasma and urine; format: in vivo, human
Protocol: as §1

[6] = system: polyamine pools and SAMDC activity in leukocytes; assay: polyamines and SAMDC activity in peripheral blood leukocytes; format: in vivo, human
Protocol: as §1

[7] = system: xenograft or orthotopic tumour; set-up: method as in earlier work; conditions: 5- 25 mg kg-1 day-1 intraperitoneally, ref Regenass et al, 1994, Dorhout et al, 1995, Gutman et al, Manni et al, Delworth et al, 1997, Svensson et al, Mi et al, 1998; cited from earlier work
[8] = set-up: method as in unpublished; conditions: rat, basis of starting dose; ref unpublished; cited from earlier work
[9] = system: S-adenosylmethionine decarboxylase (SAMDC); conditions: cited from earlier work
L-1210 leukaemia = system: L-1210 leukaemia; set-up: method as in Dorhout et al, 1995; conditions: treated L-1210 leukaemia-bearing animals; ref Dorhout et al, 1995; cited from earlier work

Structure (SMILES): N=C(N)c1cccc2c1CCC2=NN=C(N)N [SAM486A]
- metabolism and excretion [1]: hardly metabolized and predominantly renally excreted
- plasma clearance and distribution [1]: multi-exponential with extensive distribution outside the plasma compartment
- drug level in tumours compared to plasma elimination profile [2]: marked accumulation of the drug was seen in tumours
- growth inhibitory IC50 [3]: micromolar range
- acute toxicity findings [4]: acute cardiovascular and respiratory
- objective tumour response (solid tumours; 39 patients): No objective remission; also recorded: No complete or partial responses
- patients with stable disease as best response (solid tumours; 39 patients): five
- tumour markers (CEA, CA 15.3) post-baseline (solid tumours; six evaluable patients): No trends towards decreases
- FDG-PET result after first 5-day infusion (solid tumours; two patients, 400 mg m-2 cycle-1): stable disease at best
- effect of combination with 5FU and with cisplatin (tumour): Additive to synergistic effects
- mean terminal elimination t1/2 ([5]; all patients included in the analysis, standard deviation 23.1 h): 48.6 h
- fraction of total drug administered excreted in urine ([5]; day 1): Approximately 3%
- plasma SAM486A concentrations ([5]; first 10 patients at lowest dose levels, significant portions of sampling interval): below the limit of quantitation
- terminal half-life (approximate) ([5]; plasma, patients): approximately 2 days
- evaluable patients with marginal trend to increased SAMDC activity ([6]; 400 mg m-2 cycle-1 and above): eight of 13
- evaluable patients with trend to increased putrescine ([6]; 400 mg m-2 cycle-1 and above): 10 of the 11
- evaluable patients with trend to increased putrescine ([6]; 3-200 mg m-2 cycle-1): six of the 12
- evaluable patients with marginal trend to increased SAMDC activity ([6]; doses up to 200 mg m-2 cycle-1): nine of 18
- expected concomitant decrease in spermidine and spermine ([6]; peripheral blood leukocytes): could not be detected
- effect on tumour growth [7]: inhibited tumour growth
- no-adverse-effect level [8]: 0.06 mg/kg/day
- fold more active than MGBG ([9]; SAMDC inhibition in vitro, ref Regenass et al, 1994): approximately 200 fold
- IC50 ([9]; as quoted in results and discussion, read-out: IC50 required in in vitro experiments for inhibition of SAMDC): 4.7 nM
- IC50 for inhibition of SAMDC as plasma concentration ([9]; as quoted in results): 1.1 ng/mL
- IC50 ([9]; in vitro, ref Regenass et al, 1994, read-out: IC50 for SAMDC): 4.7 nM
- SAMDC activity and putrescine pools in tumours (L-1210 leukaemia): decreased SAMDC activity and elevated putrescine pools
